In US20210196779A1, “Compositions and Methods for Treating Steroid Hormone-Related Diseases or Disorders” (YALE UNIVERSITY, priority 2018, published 2021):
Like-named read-outs stand apart in the source and are kept apart here.

Tests used:
Format in all cases: cell-based
estrogen receptor ERb = experiment: Western blot, MCF7 cells, ERb; conditions: presence or absence of E2, 24 h
Description: (§1) Western blot analysis was used to determine the protein expression using protein specific antibodies.
(§2) Total cell lysis was conducted using 2×SDS sample buffer (62.5 mM Tris-HCl, 2% SDS, 10% glycerol, 50 mM DTT, and 0.05% bromophenol blue). The samples were sonicated for 10 s to shear DNA. Cell nuclei were isolated using Tris buffer saline with 0.4% NP40. Cell extracts were then electrophoresed through 10% SDS-polyacrylamide gels and transferred to 0.2 μm nitrocellulose membranes (Bio-Rad Laboratories, Hercules, Calif.) with a Miniprotein II transferring apparatus (Bio-Rad). The membranes were blocked and probed in TBS-T buffer (1×TBS buffer, 0.2% Tween 20) containing 5% non-fat milk. Monoclonal rabbit anti-AR (1:5000), was used to detect androgen receptor (Abcam #133273), Glucocorticoid Receptor (D8H2) XP® Rabbit mAb #3660, ERa Antibody (F-10): sc-8002, BRD4 (E2A7X) Rabbit mAb #13440, Brd2 (D89B4) Rabbit mAb #5848, PARP (46D11) Rabbit mAb #9532, Acetyl-Histone H3 (Lys27) (D5E4) XP® Rabbit mAb #8173 and a monoclonal actin antibody diluted 1:2500 (Sigma, St. Louis, Mo.) was used to detect β-actin as the internal control to confirm equal protein loading. […] Enhanced chemiluminescence reagents (Perkin-Elmer Life Science Products, Boston, Mass.) were used to visualize the immunoreactive bands and the densities of protein bands were scanned analyzed using ImageJ software from the NIH.

GR [1] = experiment: Western blot, MCF7 cells, GR; conditions: 24 h
Description: as §1, §2

LNCaP cells = experiment: Cell growth assay, LNCaP prostate cancer cells; conditions: for IC50: Homo sapiens, LNCaP, 96 h, 4 days, standardized to equivalent concentration of Y1830, read-out: IC50 for the inhibition of growth
Description: (§3) 22RV1 or LNCaP prostate cancer cells were grown in corning T75 cell culture flasks in RPMI1640 medium supplemented with 5% FBS, 50 μg/ml Kanamycin in a 37° C., 5% CO2 incubator.
(§4) 20,000 cells in 1 ml of medium (phenol red free RPMI1640, 5% charcoal-dialysis FBS, 50 μg/ml Kanamyacin) were seeded per well of a 24-well plate and incubated in a 37° C. incubator with 5% CO2 overnight. Different concentrations of herbal extract were added to each well in order to have final concentrations from 50 μg/ml to 500 μg/ml. […] For glucocorticoid receptor overexpressed LNCaP cells, dexamethasone (50 nM) was used to stimulate glucocorticoid receptor activity. For all breast cancer cells, E2 (10 nM) was used to stimulate ER activity. Control medium without any steroid hormone was used as a control setting. After 4 days of incubation, cells were fixed and stained for 2 h with 0.5% methylene blue in 50% ethanol, followed by washing with tap water to remove unbound dye. Plates were air dried and then cells were dissolved in 1% sarkosyl (sodium lauroyl sarcosinate) by shaking at room temperature for 3 h. […] All experiments were performed in triplicate wells and were repeated at least three times.

androgen receptor (AR) = experiment: PSA-luciferase reporter assay, DHT induced, 22RV1 cells; conditions: equivalent doses, 22RV1 cells in the presence of DHT
Description: 22RV1 or LNCaP prostate cancer cells were used in the screening study. 22RV1 or LNCaP cell lines were stably transfected with PSA promoter-PGL4.2 luciferase reporter. DHT (25 nM) was used to stimulate androgen receptor activity for 24 h.
Reporter cells were treated with herbal extracts at 30, 100, 300, and 1000 μg/ml for 24 h in a 37° C.-CO2 incubator. DHT (25 nM) was used to stimulate androgen receptor activity. Dexamethasone (50 nM) was used to stimulate glucocorticoid receptor activity Cells were lysed using luciferase lysis buffer after which luciferase buffer with luciferin was added to generate luminescence. Luminescence was recorded using a luminescence microplate reader.

beta-catenin (b-cat) [2] = experiment: Western blot, MCF7 cells, beta-catenin; conditions: presence or absence of E2, 24 h
Description: as §1, §2

[3] = system: progesterone receptor PR (a and b); experiment: Western blot, MCF7 cells, PR; conditions: presence or absence of E2, 24 h
Description: as §1, §2

GR [4] = experiment: Western blot, 22RV1 cells, GR; conditions: presence or absence of DHT, 24 h
Description: as §1, §2

PC3 cells = experiment: Cell growth assay, PC3 cells; conditions: for IC50: Homo sapiens, PC-3, 96 h, 4 days, standardized to equivalent concentration of Y1830, read-out: IC50 for the inhibition of growth
Description: as §4

beta-catenin (b-cat) [5] = experiment: Western blot, 22RV1 cells, beta-catenin; conditions: presence or absence of DHT, 24 h
Description: as §1, §2

CD47 = experiment: Western blot, MCF7 cells, CD47; conditions: MCF7 cells (FIG. 10)
Description: as §2

22Rv1 cells = experiment: Cell growth assay, 22Rv1 prostate cancer cells; conditions: Homo sapiens, 22Rv1, 96 h, 4 days, standardized to equivalent concentration of Y1830, read-out: IC50 for the inhibition of growth
Description: as §3, §4

AR-V (truncated AR) = experiment: Western blot, 22RV1 cells, AR-V; conditions: presence or absence of DHT, 24 h
Description: as §1, §2

cyclin D1 (cycD1) [6] = experiment: Western blot, MCF7 cells, cyclin D1; conditions: presence or absence of E2, 24 h
Description: as §1, §2

cyclin D1 (cycD1) [7] = experiment: Western blot, 22RV1 cells, cyclin D1; conditions: presence or absence of DHT, 24 h
Description: as §1, §2

[8] = system: LNCaP-GR (GR overexpressing) cells; experiment: Cell growth assay, GR overexpressing LNCaP cells; conditions: for IC50: Homo sapiens, LNCaP, 96 h, 4 days, standardized to equivalent concentration of Y1830, read-out: IC50 for the inhibition of growth
Description: as §4

AR [9] = experiment: Western blot, 22RV1 cells, AR; conditions: presence or absence of DHT, 24 h
Description: as §1, §2

AR [10] = target: T1, AR (Homo sapiens, UniProt P10275); experiment: Western blot, MCF7 cells, AR; conditions: presence or absence of E2, 24 h
T1 construct: endogenous in cells; host or cells: MCF7
Description: as §1, §2

estrogen receptor ERa = target: T2, estrogen receptor ERa (Homo sapiens, UniProt P03372); experiment: Western blot, MCF7 cells, ERa; conditions: presence or absence of E2, 24 h
T2 construct: endogenous in cells; host or cells: MCF7
Description: as §1, §2

T1 sequence (P10275 whole entry): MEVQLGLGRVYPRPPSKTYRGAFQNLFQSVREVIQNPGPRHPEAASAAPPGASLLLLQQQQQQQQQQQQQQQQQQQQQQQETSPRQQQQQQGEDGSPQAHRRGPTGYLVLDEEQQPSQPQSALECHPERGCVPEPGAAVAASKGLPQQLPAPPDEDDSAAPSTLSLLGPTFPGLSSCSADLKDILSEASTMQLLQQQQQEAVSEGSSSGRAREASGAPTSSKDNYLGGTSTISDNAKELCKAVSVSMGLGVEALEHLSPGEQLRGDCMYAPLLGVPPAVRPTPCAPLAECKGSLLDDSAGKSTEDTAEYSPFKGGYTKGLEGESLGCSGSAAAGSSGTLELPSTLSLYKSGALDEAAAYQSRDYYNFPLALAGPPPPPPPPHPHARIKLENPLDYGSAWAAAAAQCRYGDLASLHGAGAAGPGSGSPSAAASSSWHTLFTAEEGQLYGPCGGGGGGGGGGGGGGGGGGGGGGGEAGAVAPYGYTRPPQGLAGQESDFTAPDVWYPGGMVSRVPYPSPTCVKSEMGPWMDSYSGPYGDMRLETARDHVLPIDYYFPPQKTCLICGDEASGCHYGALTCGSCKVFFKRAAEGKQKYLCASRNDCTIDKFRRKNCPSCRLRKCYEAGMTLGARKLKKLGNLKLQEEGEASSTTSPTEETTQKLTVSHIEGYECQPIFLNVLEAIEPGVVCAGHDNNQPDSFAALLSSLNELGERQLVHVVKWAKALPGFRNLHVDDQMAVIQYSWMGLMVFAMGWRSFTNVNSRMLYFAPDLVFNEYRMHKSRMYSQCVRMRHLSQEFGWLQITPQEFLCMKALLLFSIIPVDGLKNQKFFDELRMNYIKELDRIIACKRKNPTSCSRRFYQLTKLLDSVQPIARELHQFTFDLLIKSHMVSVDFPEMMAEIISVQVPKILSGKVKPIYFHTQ
T2 sequence (P03372 whole entry): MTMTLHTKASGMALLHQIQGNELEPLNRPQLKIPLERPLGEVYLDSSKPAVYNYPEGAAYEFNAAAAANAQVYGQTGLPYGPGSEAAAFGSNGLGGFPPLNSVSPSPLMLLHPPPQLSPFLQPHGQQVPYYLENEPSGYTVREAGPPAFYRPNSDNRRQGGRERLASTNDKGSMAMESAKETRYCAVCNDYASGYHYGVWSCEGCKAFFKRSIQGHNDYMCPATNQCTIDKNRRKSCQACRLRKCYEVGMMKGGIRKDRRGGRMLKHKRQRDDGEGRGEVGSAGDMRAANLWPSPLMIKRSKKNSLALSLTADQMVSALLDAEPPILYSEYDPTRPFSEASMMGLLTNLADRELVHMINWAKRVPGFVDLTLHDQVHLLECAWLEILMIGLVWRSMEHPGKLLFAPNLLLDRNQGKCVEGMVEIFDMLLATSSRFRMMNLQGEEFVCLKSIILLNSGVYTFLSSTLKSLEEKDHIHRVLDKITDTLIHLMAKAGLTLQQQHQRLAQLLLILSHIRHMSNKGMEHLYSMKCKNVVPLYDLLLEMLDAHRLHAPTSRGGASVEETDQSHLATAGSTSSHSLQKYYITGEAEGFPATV

| Compound | ERb protein expression (estrogen receptor ERb) | GR protein expression (GR [1]) | IC50 (LNCaP cells; LNCaP w/DHT 2 nM) [µg/mL] | IC50 (LNCaP cells; no DHT) [µg/mL] | inhibitory effect on AR mediated transcriptional response (androgen receptor (AR)) | beta-catenin protein expression (beta-catenin (b-cat) [2]) | PR (a and b) protein expression [3] | GR protein expression (GR [4]) | IC50 (PC3 cells; PC3, no DEX) [µg/mL] | IC50 (PC3 cells; PC3 w/DEX 50 nM) [µg/mL] | beta-catenin protein expression (beta-catenin (b-cat) [5]) | IC50 (22Rv1 cells; 22Rv1, no DHT/DEX) [µg/mL] | IC50 (22Rv1 cells; 22Rv1 w/DEX 50 nM) [µg/mL] | IC50 (22Rv1 cells; 22Rv1 w/DHT 25 nM) [µg/mL] | AR-V protein expression (AR-V (truncated AR)) | cyclin D1 protein expression (cyclin D1 (cycD1) [6]) | cyclin D1 protein expression (cyclin D1 (cycD1) [7]) | IC50 ([8]; LNCaP-GR w/DEX 50 nM) [µg/mL] | IC50 ([8]; LNCaP-GR w/DHT 2 nM) [µg/mL] | IC50 ([8]; LNCaP-GR, no DHT/DEX) [µg/mL] | also measured |
| --- | --- | --- | --- | --- | --- | --- | --- | --- | --- | --- | --- | --- | --- | --- | --- | --- | --- | --- | --- | --- | --- |
| CC(=O)OCC1OC(Oc2cc3c(c(O)c2C)C(=O)c2ccc(O)cc2C3=O)C(OC2OC(C)C(O)C(O)C2O)C(O)C1O [RGA, 1,3,6-Trihydroxy-2-methyl-9,10-anthracenedione 3-O-[α-L-Rhamnopyranosyl-(1→2)-6-O-acetyl-β-D-glucopyranoside]] | slightly downregulate | did not inhibited | 50 | > 500 | very similar anti-AR activity as the Y1830 water extract | moderate inhibitory effect | downregulate | but not GR | 146 | 320 | moderate inhibitory effect | 306 | 220 | 253 | downregulate | strong inhibitory effects | strong inhibitory effect | 60 | 40 | 220 | susceptibility of LNCaP cell growth to treatment (in words) (LNCaP cells; in the absence of DHT): not be susceptible; sensitivity of LNCaP cell growth to treatment (in words) (LNCaP cells; in the presence of DHT): more sensitive; inhibition of PC3 cell growth (in words) (PC3 cells; with or without DEX): inhibited PC3 cell growth, but less effectively in the presence of DEX; CD47 expression (CD47): downregulation; inhibition of LNCaP-GR cell growth (in words) ([8]; in the presence of either DHT or DEX): effectively inhibited; AR protein expression (AR [9]): downregulate; AR protein expression (AR [10]): downregulate; ERa protein expression (estrogen receptor ERa): downregulate |
| Cc1c(OC2OC(CO)C(O)C(O)C2OC2OC(C)C(O)C(O)C2O)cc2c(c1O)C(=O)c1ccc(O)cc1C2=O [RG, 1,3,6-Trihydroxy-2-methyl-9,10-anthracenedione 3-O-[α-L-Rhamnopyranosyl-(1→2)-β-D-glucopyranoside]] | did not have any impact | did not have any impact | > 500 | > 500 | very weak activity | did not have any impact | did not have any impact | did not have impact | > 500 | > 500 | did not have impact | > 500 | > 500 | > 500 | did not have impact | did not have any impact | did not have impact | > 500 | > 500 | > 500 | AR protein expression (AR [9]): did not have impact; AR protein expression (AR [10]): did not have any impact; ERa protein expression (estrogen receptor ERa): did not have any impact |
